Laboratory results as given in US20240342292A1, “Compounds for the Degradation of EGFR Kinase” (BeiGene Switzerland GmbH, priority 2021, published 2024).

Tests used:
L858R/T790M/C797S EGFR = target: T1, L858R/T790M/C797S EGFR (Homo sapiens, UniProt P00533, C797S/L858R/T790M); assay: EGFR degradation HTRF assay in H1975-clone #25 (LTC) cells; format: cell-based; conditions: 16h treatment; for DC50: H1975 # 25-LTC (L858R/T790M/C797S), HTRF; for Dmax: NCI-H1975, H1975 # 25-LTC (L858R/T790M/C797S), maximum percentage of degradation
T1 construct: expressed in transfected cells; host or cells: H1975 clone #25 (lentiviral over-expression, endogenous EGFR knocked out by sgRNA)
Method in brief: (§1)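 H1975 clones with endogenous EGFR knocked out and lentivirally expressed mutant EGFR treated 16 h at 37 °C with compounds, 8 doses from 10 uM, 5-fold dilutions, 0.2% DMSO. Lysates read by HTRF (665/620 nm) overnight; DC50 from four-parameter fit.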

Del19/T790M/C797S EGFR = assay: EGFR degradation HTRF assay in H1975-clone #28 (DTC) cells; format: cell-based; conditions: H1975 # 28 DTC (Del19/T790M/C797S), 16h treatment; for DC50: HTRF; for Dmax (%): maximum percentage of degradation
Method in brief: as §1

T1 sequence (P00533 25-1210 T790M/C797S/L858R): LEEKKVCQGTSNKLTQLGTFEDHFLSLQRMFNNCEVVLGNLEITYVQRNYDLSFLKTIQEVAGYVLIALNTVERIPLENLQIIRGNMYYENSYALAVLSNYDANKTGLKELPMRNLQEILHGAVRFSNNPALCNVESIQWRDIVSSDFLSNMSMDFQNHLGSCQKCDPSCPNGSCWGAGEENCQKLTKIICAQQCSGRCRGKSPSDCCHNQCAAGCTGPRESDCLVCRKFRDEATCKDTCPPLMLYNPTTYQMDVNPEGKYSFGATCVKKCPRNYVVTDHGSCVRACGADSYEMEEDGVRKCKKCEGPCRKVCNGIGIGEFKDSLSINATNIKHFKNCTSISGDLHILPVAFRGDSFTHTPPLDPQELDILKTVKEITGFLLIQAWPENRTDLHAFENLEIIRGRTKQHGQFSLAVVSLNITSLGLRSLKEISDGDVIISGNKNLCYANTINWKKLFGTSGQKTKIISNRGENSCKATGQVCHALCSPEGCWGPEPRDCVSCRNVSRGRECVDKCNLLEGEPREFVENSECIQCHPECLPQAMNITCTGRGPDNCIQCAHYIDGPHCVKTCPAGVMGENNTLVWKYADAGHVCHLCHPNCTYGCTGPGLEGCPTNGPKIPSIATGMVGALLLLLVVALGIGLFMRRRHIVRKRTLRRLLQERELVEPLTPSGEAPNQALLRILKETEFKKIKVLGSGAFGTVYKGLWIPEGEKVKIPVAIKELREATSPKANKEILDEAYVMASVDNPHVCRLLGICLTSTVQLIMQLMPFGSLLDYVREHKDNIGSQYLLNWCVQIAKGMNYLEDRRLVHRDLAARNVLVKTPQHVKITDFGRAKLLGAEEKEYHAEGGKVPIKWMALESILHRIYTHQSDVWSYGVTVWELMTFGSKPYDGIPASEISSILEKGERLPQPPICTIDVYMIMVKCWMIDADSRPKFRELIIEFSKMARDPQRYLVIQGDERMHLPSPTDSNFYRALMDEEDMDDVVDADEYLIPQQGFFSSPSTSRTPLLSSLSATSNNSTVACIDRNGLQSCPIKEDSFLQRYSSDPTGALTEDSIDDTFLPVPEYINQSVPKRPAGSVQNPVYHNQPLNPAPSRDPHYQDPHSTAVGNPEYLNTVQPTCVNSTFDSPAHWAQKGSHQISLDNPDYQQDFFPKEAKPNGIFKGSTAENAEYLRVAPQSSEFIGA

| DC50 (L858R/T790M/C797S EGFR) | Dmax (L858R/T790M/C797S EGFR) | DC50 (Del19/T790M/C797S EGFR) | Structure (SMILES) | Dmax (%) (Del19/T790M/C797S EGFR) |
| --- | --- | --- | --- | --- |
| 856 pM | 92.2% | 652 pM | Cc1cc2cc(n1)-c1cnn(C)c1OCCC[C@@H](C)CN1/C(=N/C2=O)Nc2ccc(N3CCN(CC4CN(c5cc(F)c([C@H]6CCC(=O)NC6=O)c(F)c5)C4)[C@@H](CO)C3)cc21 [Example 422, (R)-3-(2,6-difluoro-4-(3-(((R)-2-(hydroxymethyl)-4-((R,E)-1^1,2^6,7-trimethyl-3-oxo-5^2,5^3-dihydro-1^1H,5^1H-li-oxa-4-aza-5(2,1)-benzo[d]imidazola-2(2,4)-pyridina-1(4,5)-pyrazolacycloundecaphane-5^6-yl)piperazin-1-yl)methyl)azetidin-1-yl)phenyl)piperidine-2,6-dione] | 83.55% |
| 1400 pM | 78.8% | 655 pM | Cc1cc2cc(n1)-c1cnn(C)c1OCCC[C@@H](C)CN1/C(=N/C2=O)Nc2ccc(N3CCN(CC4CN(c5cc(F)c([C@H]6CCC(=O)NC6=O)c(F)c5)C4)[C@@H](C#N)C3)cc21 [Example 423, (R)-1-((1-(4-((R)-2,6-dioxopiperidin-3-yl)-3,5-difluorophenyl)azetidin-3-yl)methyl)-4-((R,E)-1^1,2^6,7-trimethyl-3-oxo-5^2,5^3-dihydro-1^1H,5^1H-1l-oxa-4-aza-5(2,1)-benzo[d]imidazola-2(2,4)-pyridina-1(4,5)-pyrazolacycloundecaphane-5^6-yl)piperazine-2-carbonitrile] | 67.20% |
| 730 pM | 92.7% | 957 pM | Cc1cc2cc(n1)-c1cnn(C)c1OCCC[C@@H](C)CN1/C(=N/C2=O)Nc2ccc(N3CCN(C4CCN(c5cc(F)c([C@H]6CCC(=O)NC6=O)c(F)c5)CC4)C(=O)C3)cc21 [Example 425, (R)-3-(2,6-difluoro-4-(4-(2-oxo-4-((R,E)-1^1,2^6,7-trimethyl-3-oxo-5^2,5^3-dihydro-1^1H,5^1H-11-oxa-4-aza-5(2,1)-benzo[d]imidazola-2(2,4)-pyridina-1(4,5)-pyrazolacycloundecaphane-5^6-yl)piperazin-1-yl)piperidin-1-yl)phenyl)piperidine-2,6-dione] | 83.85% |
| 1010 pM | 91% | 534 pM | Cc1cc2cc(n1)-c1cnn(C)c1OCCC[C@@H](C)CN1/C(=N/C2=O)Nc2ccc(N3CCN(CCC4CCN(c5cc(F)c([C@H]6CCC(=O)NC6=O)c(F)c5)CC4)CC3=O)cc21 [Example 437, (R)-3-(2,6-difluoro-4-(4-(2-(3-oxo-4-((R,E)-1^1,2^6,7-trimethyl-3-oxo-5^2,5^3-dihydro-1^1H,5^1H-11-oxa-4-aza-5(2,1)-benzo[d]imidazola-2(2,4)-pyridina-1(4,5)-pyrazolacycloundecaphane-5^6-yl)piperazin-1-yl)ethyl)piperidin-1-yl)phenyl)piperidine-2,6-dione] | 88.76% |
| 964 pM | 85.6% | 983 pM | Cc1cc2cc(n1)-c1cnn(C)c1OCCC[C@@H](C)CN1/C(=N/C2=O)Nc2ccc(N(C)C3CN(C4CCN(c5cc(F)c([C@H]6CCC(=O)NC6=O)c(F)c5)CC4)C3)cc21 [Example 438, (R)-3-(2,6-difluoro-4-(4-(3-(methyl((R,E)-1^1,2^6,7-trimethyl-3-oxo-5^2,5^3-dihydro-1^1H,5^1H-11-oxa-4-aza-5(2,1)-benzo[d]imidazola-2(2,4)-pyridina-1(4,5)-pyrazolacycloundecaphane-5^6-yl)amino)azetidin-1-yl)piperidin-1-yl)phenyl)piperidine-2,6-dione] | 72.51% |
| 1400 pM | 87.3% | 1520 pM | Cc1cc2cc(n1)-c1cnn(C)c1OCCC[C@@H](C)CN1/C(=N/C2=O)Nc2ccc(C(=O)N(C)C3CCN(CCc4cc(F)c([C@H]5CCC(=O)NC5=O)c(F)c4)CC3(C)C)cc21 (stereo partly drawn) [Example 439, (R,E)-N—((S)-1-(4-((R)-2,6-dioxopiperidin-3-yl)-3,5-difluorophenethyl)-3,3-dimethylpiperidin-4-yl)-N,1^1,2^6,7-tetramethyl-3-oxo-5^2,5^3-dihydro-1^1H,5^1H-11-oxa-4-aza-5(2,1)-benzo[d]imidazola-2(2,4)-pyridina-1(4,5)-pyrazolacycloundecaphane-5^6-carboxamide] | 76.03% |
| 936 pM | 93.5% | 884 pM | Cc1cc2cc(n1)-c1cnn(C)c1OCCC[C@@H](C)CN1/C(=N/C2=O)Nc2ccc(N3CCN([C@H]4CCN(c5ccc([C@H]6CCC(=O)NC6=O)nc5C)C[C@@H]4F)CC3)cc21 [Example 440, (R)-3-(5-((3S,4S)-3-fluoro-4-(4-((R,L)-1^1,2^6,7-trimethyl-3-oxo-5^2,5′-dihydro-1^1H,5^1H-11-oxa-4-aza-5(2,1)-benzo[d]imidazola-2(2,4)-pyridina-1(4,5)-pyrazolacycloundecaphane-5^6-yl)piperazin-1-yl)piperidin-1-yl)-6-methylpyridin-2-yl)piperidine-2,6-dione] | 85.39% |
| 857 pM | 89.2% | 643 pM | Cc1cc2cc(n1)-c1cnn(C)c1OCC[C@@H]1C[C@H]1CN1/C(=N/C2=O)Nc2ccc(N3CCN(C4CCN(c5cc(F)c([C@H]6CCC(=O)NC6=O)c(F)c5)CC4)CC3)cc21 [Example 441, (R)-3-(4-(4-(4-((7′R,7^2S,E)-1^1,2^6-dimethyl-3-oxo-5^2,5^3-dihydro-1^1H,5^1H-10-oxa-4-aza-5(2,1)-benzo[d]imidazola-2(2,4)-pyridina-1(4,5)-pyrazola-7(1,2)-cyclopropanacyclodecaphane-5^6-yl)piperazin-1-yl)piperidin-1-yl)-2,6-difluorophenyl)piperidine-2,6-dione] | 89.27% |
| 742 pM | 84.4% | 721 pM | Cc1cc2cc(n1)-c1cnn(C)c1OCCC[C@@H](C)CN1/C(=N/C2=O)Nc2ccc(N3CCN(CCNc4cc(F)c([C@H]5CCC(=O)NC5=O)c(F)c4)[C@H](CC#N)C3)cc21 [Example 442, 2-((R)-1-(2-((4-((R)-2,6-dioxopiperidin-3-yl)-3,5-difluorophenyl)amino)ethyl)-4-((R,E)-1^1,2^6,7-trimethyl-3-oxo-5^2,5^3-dihydro-1^1H,5^1H-11-oxa-4-aza-5(2,1)-benzo[d]imidazola-2(2,4)-pyridina-1(4,5)-pyrazolacycloundecaphane-5^6-yl)piperazin-2-yl)acetonitrile] | 70.20% |
| 559 pM | 84.5% | 2140 pM | Cc1cc2cc(n1)-c1cnn(C)c1OCCC[C@@H](C)CN1/C(=N/C2=O)Nc2ccc(N3CCN([C@H]4C[C@@H](Nc5cc(F)c([C@H]6CCC(=O)NC6=O)c(F)c5)C4)CC3)cc21 [Example 445, (R)-3-(2,6-difluoro-4-(((1 S,3S)-3-(4-((R,E)-1^1,2^6,7-trimethyl-3-oxo-5^2,5^3-dihydro-1^1H,5^1H-11-oxa-4-aza-5(2,1)-benzo[d]imidazola-2(2,4)-pyridina-1(4,5)-pyrazolacycloundecaphane-5^6-yl)piperazin-1-yl)cyclobutyl)amino)phenyl)piperidine-2,6-dione] | 74.88% |
| 696 pM | 91.8% | 1190 pM | Cc1cc2cc(n1)-c1cnn(C)c1OCCC[C@@H](C)CN1/C(=N/C2=O)Nc2ccc(CCN3CCN(c4cc(F)c([C@H]5CCC(=O)NC5=O)c(F)c4)CC3)cc21 [Example 446, (R)-3-(2,6-difluoro-4-(4-(2-((R,E)-1^1,2^6,7-trimethyl-3-oxo-5^2,5^3-dihydro-1^1H,5^1H-11-oxa-4-aza-5(2,1)-benzo[d]imidazola-2(2,4)-pyridina-1(4,5)-pyrazolacycloundecaphane-5^6-yl)ethyl)piperazin-1-yl)phenyl)piperidine-2,6-dione] | 76.42% |
| 652 pM | 84.2% | 645 pM | Cc1cc2cc(n1)-c1cnn(C)c1OCCC[C@@H](C)CN1/C(=N/C2=O)Nc2ccc(N3CCN(C4CCN(c5cc(F)c([C@H]6CCC(=O)NC6=O)c(F)c5)CC4)[C@H](CO)C3)cc21 [Example 447, (R)-3-(2,6-difluoro-4-(4-((S)-2-(hydroxymethyl)-4-((R,E)-1^1,2^6,7-trimethyl-3-oxo-5^2,5^3-dihydro-1^1H,5^1H-11-oxa-4-aza-5(2,1)-benzo[d]imidazola-2(2,4)-pyridina-1(4,5)-pyrazolacycloundecaphane-5^6-yl)piperazin-1-yl)piperidin-1-yl)phenyl)piperidine-2,6-dione] | 76.31% |
| 237 pM | 92.3% | 584 pM | Cc1cc2cc(n1)-c1cnn(C)c1OCCC[C@@H](C)CN1/C(=N/C2=O)Nc2ccc(N3CC[C@@H](N4CCN(c5cc(F)c([C@H]6CCC(=O)NC6=O)c(F)c5)CC4)CC3=O)cc21 [Example 448, (R)-3-(2,6-difluoro-4-(4-((R)-2-oxo-1-((R,E)-1^1,2^6,7-trimethyl-3-oxo-5^2,5^3-dihydro-1^1H,5^1H-11-oxa-4-aza-5(2,1)-benzo[d]imidazola-2(2,4)-pyridina-1(4,5)-pyrazolacycloundecaphane-5^6-yl)piperidin-4-yl)piperazin-1-yl)phenyl)piperidine-2,6-dione] | 88.36% |
